The test system of one series is A549 cells. Put plainly: Growth inhibition of siRNA-transfected A549 cells, SYBR Green I DNA content. The class given is cell-based, human. Conditions: 10 nM siRNA, DNA content 96 hours after transfection; for Growth Inhibition in A549 cells by 10 nM siRNA: transporter gene targets. As for the experimental part:
A549 cells (human lung cancer cell line; ATCC No. CCL-185), SK-MeI-5 cells (human melanoma cell line; ATCC No. HTB-70), MCF-7 cells (human adenocarcinoma cell line; ATCC No. HTB-22), HCT-116 cells (colorectal carcinoma; ATCC CCL-247) and HCT-116 p53 null cells (derived from ATCC No. CCL-247; Bunz et al., Science 282:1497-1501, 1998) were cultured in RPMI 1640 medium with 10% v/v heat-inactivated fetal calf serum (FCS). Cells were seeded at a density of 5×10^4 cells/cm^2 in multi-well tissue culture plates. Sequences of Stealth™ siRNA duplexes (Invitrogen) targeting human ribonucleotide reductase subunit 1 (SEQ ID NO: 22) and subunit 2 (SEQ ID NO; 38) are given in SEQ ID NO: 4830-4832 (DNA), and SEQ ID NO: 5136-5138 (RNA) for RRM1, and SEQ ID NO: 5306-5308 (DNA), and SEQ ID NO: 5303-5305 (RNA) for RRM2. siRNAs were transfected at different concentrations into cells using Lipofectamine™ RNAiMAX transfection reagent (Invitrogen). Non-specific siRNA (SEQ ID NO: 4804 and 4805 (DNA), and SEQ ID NO: 5301 and 5302 (RNA)) were used as controls. The cellular DNA content was measured using a SYBR Green I-based fluorometric assay at 24, 48, 72 and 96 hours after transfection (120 hours for the MCF-7 cells), as follows. At the indicated time points following reverse transfection, cells were harvested and frozen at −80° C. overnight. Cells were thawed and cell lysis buffer (phosphate-buffered saline (PBS) containing 1% Triton X-100, pH 7) and SYBR Green I (1:10^5 V/V; Invitrogen) was added to the wells and incubated overnight in the dark at 4° C.
The following day, cell lysates were mixed thoroughly, and DNA fluorescence was measured with a Wallac Victor^2 plate reader (Turku, Finland) set at an excitation frequency of 485 nm and measuring emission at 535 nm.
To determine the duration of the knock-down effect of RRM1-targeting siRNA, A549 cells were reverse transfected with 1 or 10 nM RRM1-3 (SEQ ID NO: 4832 (DNA, and SEQ ID NO: 5138 (RNA)) or control siRNA (SEQ ID NO: 4804 (DNA), and SEQ ID NO: 5301 (RNA)), and growth followed over time. Growth inhibition was measured daily as described above for up to ten days. RRM1-3-mediated RRM1 silencing inhibited growth for at least 10 days post-transfection at both 1 and 10 nM (FIG. 11).
siRNA-mediated inhibition of cancer cell growth was determined in A549 cells as follows. A549 cells (human lung cancer cell line; ATCC No. CCL-185) were cultured in RPMI 1640 medium with 10% v/v heat-inactivated fetal calf serum. Cells were seeded at a density of 5×10^3 cells/cm^2 in multi-well tissue culture plates. Stealth™ siRNA duplexes (Invitrogen) targeting genes involved in cancer energy and metabolism pathways and listed in Table 9, were transfected at 10 nM into cells using Lipofectamine™ RNAiMAX transfection reagent (Invitrogen). Non-specific siRNA (SEQ ID NO: 4804 and 4805 (DNA), and SEQ ID NO: 5301 and 5302 (RNA)) were used as controls. The cellular DNA content was measured using a SYBR Green I-based fluorometric assay at 96 hours after transfection. The cells were harvested and frozen at −80° C. overnight. Cells were thawed and cell lysis buffer (phosphate-buffered saline (PBS) containing 1% Triton X-100, pH 7) and SYBR Green I (1:10^5 v/v; Invitrogen) was added to the wells and incubated overnight in the dark at 4° C. The following day, cell lysates were mixed thoroughly, and DNA fluorescence was measured with a Wallac Victor^2 plate reader (Turku, Finland) set at an excitation frequency of 485 nm and measuring emission at 535 nm.
Three different siRNAs were tested for each target gene. The average fluorescence units from three replicate wells, representing the amount of DNA per well, were used to determine the effect on growth inhibition. The results are given in Table 10 (energy and metabolism gene targets) and Table 11 (transporter gene targets).
siRNA-mediated RNAi was also determined on a panel of different cell lines. […]

The test system of series [1] is target transcript mRNA in A549 cells. Briefly: Level of mRNA of target transcript in A549 cells by quantitative RT-PCR (Tables 12 and 13). Particulars: 24 h post-transfection; for mRNA knockdown of energy and metabolism gene target transcript, 10 nM: 10 nM siRNA. It counts as cell-based, human. How it is done: A549 cells were transfected as described before with 0.1, 1.0 and 10 nM siRNA as listed in Tables 10 and 11 and the relative mRNA levels quantified 24 h post-transfection. RNA was purified from cells using Trizol® extraction as per the manufacturer's protocol (Invitrogen). cDNA was prepared by digesting approximately 200 ng purified RNA with DNAse I (Invitrogen) for 15 minutes at room temperature, followed by 15 minutes at 65° C. in the presence of 25 mM EDTA. 30 ng random primers were added and incubated for 10 minutes at 65° C., 1 minute on ice; Superscript® III polymerase (Invitrogen) was added in presence of 5 nM DTT (Invitrogen) and 1 mM deoxyribonucleotides (Invitrogen), and the reaction incubated at 25° C. for 5 minutes, followed by an hour at 50° C. cDNA was diluted 1:3 in 10 mM Tris pH 7.0, and quantitative RT-PCR carried out on an ABI Prism 7900HT (Applied Biosciences, Inc., Foster City, Calif.) using FastStart TaqMan SYBRGreen (Roche, Basel, Switzerland) or Platinum SYBR Green (Invitrogen) and 360 nM of the primers specific for gene targets and housekeeping genes HPRT and Lamin. Reduction in target mRNA levels following siRNA transfection are given in Tables 12 and 13, together with the gene specific primer sequences. Primer sequences used for the housekeeping genes HPRT and Lamin are given in SEQ ID NO: 4885-4888.

Consider “SEQ ID NO: 4878: siRNA targeting IMPDH2 (chain 1 AAATTTGTGGATTGACCCTTTGTCC; chain 2 AAAUUUGUGGAUUGACCCUUUGUCC; Both strands are one antisense strand in DNA/RNA notation, chemistry not given here, further chemistry not given here; one strand in two spellings)”, for which the “Growth Inhibition in A549 cells” value with A549 cells was “− (no growth inhibition with any siRNA)”.

Consider “SEQ ID NO: 4843: siRNA targeting NADSYN (chain 1 ATGAGCTGCAAACAGAGGGCTCTTC; chain 2 AUGAGCUGCAAACAGAGGGCUCUUC; chemistry not given here; one strand in two spellings)”, for which the “Growth Inhibition in A549 cells” value in the series with A549 cells is listed as “− (no growth inhibition with any siRNA)”.

In the case of “SEQ ID NO: 4945: siRNA targeting ATP2B3 (PMCA3) (chain 1 AATGTGTCCATGATCAAGTTCACCC; chain 2 AAUGUGUCCAUGAUCAAGUUCACCC; chemistry not given here; one strand in two spellings)”, the “Growth Inhibition in A549 cells by 10 nM siRNA” value with A549 cells is “+ (inhibits by at least 50%)”. Regarding “SEQ ID NO: 4838: siRNA targeting DHFR (chain 1 TTCTGGCAGAAGTTTATATTTCTCC; chain 2 UUCUGGCAGAAGUUUAUAUUUCUCC; chemistry not given here; one strand in two spellings)”, in the series on A549 cells, the “Growth Inhibition in A549 cells” value is “+ (inhibits by at least 50%)”. With “SEQ ID NO: 4940: siRNA targeting ATP2B2 (PMCA2) (chain 1 TTCTTGTGCATGCTGGCCTTCTTCC; chain 2 UUCUUGUGCAUGCUGGCCUUCUUCC; chemistry not given here; one strand in two spellings)”, in the series on A549 cells, the “Growth Inhibition in A549 cells by 10 nM siRNA” value was “++ (inhibits by at least 75%)”.

As to “3578 (TGAAGCGGTTTTTCTCCAAGTACTC; chemistry not given here) [compound 3578]”, the “mRNA knockdown of energy and metabolism gene target transcript, 0.1 nM” value in series [1] (0.1 nM siRNA) is reported as “+ (50-70% mRNA knockdown)”. The “mRNA knockdown of energy and metabolism gene target transcript, 1 nM” value in series [1] (1 nM siRNA) was “++ (70-90% mRNA knockdown)”. Taken in the same sequence, the figures for “1697 (GAACGTGAAGCTCCCTGACGCCTA; chemistry not given here) [compound 1697]” were “++ (70-90% mRNA knockdown)” and “+ (50-70% mRNA knockdown)”.

With “1700 (CAAGAACGTGAAGCTCCCTGACGCCTA; chemistry not given here) [compound 1700]”, the “mRNA knockdown of energy and metabolism gene target transcript, 0.1 nM” value in series [1] (0.1 nM siRNA) is reported as “+ (50-70% mRNA knockdown)”. For the same substance, the “mRNA knockdown of energy and metabolism gene target transcript, 1 nM” value in series [1] (1 nM siRNA) is recorded as “++ (70-90% mRNA knockdown)”. Taken in the same sequence, the figures for “3562 (TGCGGCTACGGATGTTGGGATCATTATTA; chemistry not given here) [compound 3562]” were “++ (70-90% mRNA knockdown)” and “+++ (>90% mRNA knockdown)”. For the substance “3539 (GCCAAGGGTAGGAGCCCTACACTAGG; chemistry not given here) [compound 3539]”, the “mRNA knockdown of energy and metabolism gene target transcript, 0.1 nM” value in series [1] (0.1 nM siRNA) is on record as “− (<50% mRNA knockdown)”. In series [1] (1 nM siRNA), the “mRNA knockdown of energy and metabolism gene target transcript, 1 nM” value is reported as “− (<50% mRNA knockdown)”. Moreover, the “mRNA knockdown of energy and metabolism gene target transcript, 10 nM” value (shortened to “mRNA knockdown … 10 nM”) in series [1] was “− (<50% mRNA knockdown)”. Regarding “SEQ ID NO: 4915: siRNA targeting SLC19A2 (ThTr1) (chain 1 ATGACATTCAGGCTGAACAGCGACC; chain 2 AUGACAUUCAGGCUGAACAGCGACC; chemistry not given here; one strand in two spellings)”, the “mRNA knockdown of transporter gene target transcript, 0.1 nM” value in series [1] (0.1 nM siRNA) is given as “++ (70-90% mRNA knockdown)”. Besides, in series [1] (1 nM siRNA), the “mRNA knockdown of transporter gene target transcript, 1 nM” value is given as “++ (70-90% mRNA knockdown)”. For the substance “3542 (GGAGCCAAGGGTAGGAGCCCTACACTAGG; chemistry not given here) [compound 3542]”, the “mRNA knockdown of energy and metabolism gene target transcript, 0.1 nM” value in series [1] (0.1 nM siRNA) is recorded as “+ (50-70% mRNA knockdown)”. Further, in series [1] (1 nM siRNA), the “mRNA knockdown of energy and metabolism gene target transcript, 1 nM” value was “++ (70-90% mRNA knockdown)”. As for “3537 (CAAGGGTAGGAGCCCTACACTAGG; chemistry not given here) [compound 3537]”, in series [1] (0.1 nM siRNA), the “mRNA knockdown of energy and metabolism gene target transcript, 0.1 nM” value is on record as “++ (70-90% mRNA knockdown)”. In addition, the “mRNA knockdown of energy and metabolism gene target transcript, 1 nM” value in series [1] (1 nM siRNA) is reported as “+++ (>90% mRNA knockdown)”. Moreover, the “mRNA knockdown … 10 nM” value in series [1] was “+++ (>90% mRNA knockdown)”.

On to “1689 (GCCAACAGGATCTTCGGCCCCATCTG; chemistry not given here) [compound 1689]”, for which the “mRNA knockdown of energy and metabolism gene target transcript, 0.1 nM” value in series [1] (0.1 nM siRNA) is reported as “− (<50% mRNA knockdown)”. Moreover, the “mRNA knockdown of energy and metabolism gene target transcript, 1 nM” value in series [1] (1 nM siRNA) is given as “++ (70-90% mRNA knockdown)”. Taken in the same sequence, the figures for “3593 (TTGCCAAAAACAGAGGAGCAAGATACAGGC; chemistry not given here) [compound 3593]” were “− (<50% mRNA knockdown)” and “+ (50-70% mRNA knockdown)”. Taken in the same sequence, the figures for “3592 (TGCCAAAAACAGAGGAGCAAGATACAGGC; chemistry not given here) [compound 3592]” were “− (<50% mRNA knockdown)” and “+ (50-70% mRNA knockdown)”. For “3540 (AGCCAAGGGTAGGAGCCCTACACTAGG; chemistry not given here) [compound 3540]”, the “mRNA knockdown of energy and metabolism gene target transcript, 0.1 nM” value in series [1] (0.1 nM siRNA) is recorded as “− (<50% mRNA knockdown)”. The “mRNA knockdown of energy and metabolism gene target transcript, 1 nM” value in series [1] (1 nM siRNA) was “− (<50% mRNA knockdown)”. In addition, the “mRNA knockdown … 10 nM” value in series [1] is reported as “− (<50% mRNA knockdown)”.

For the substance “3580 (AGTGAAGCGGTTTTTCTCCAAGTACTC; chemistry not given here) [compound 3580]”, the “mRNA knockdown of energy and metabolism gene target transcript, 0.1 nM” value in series [1] (0.1 nM siRNA) was “++ (70-90% mRNA knockdown)”. Besides, in series [1] (1 nM siRNA), the “mRNA knockdown of energy and metabolism gene target transcript, 1 nM” value is recorded as “++ (70-90% mRNA knockdown)”.

(Values after patent US20080145313A1, “Compositions and Methods for the Treatment and Prevention of Neoplastic Disorders” (Genesis Research & Development Corporation Limited, priority 2006, published 2008).)
